Measured values taken from patent US20250059172A1, “INDAZOLE COMPOUND AND PHARMACEUTICAL” (NIPPON SHINYAKU CO., LTD., priority 2021, published 2025).
Where a name gives a salt, the structure may show the parent alone.

Key:
human A549 cells = assay: Inhibition test of PGE2 production using human A549 cells; type: cell-based; conditions: IL-1β stimulated A549 cells, 24 h, PGE2 by HTRF, read-out: A549 cell inhibition of PGE2 production IC50
Method: 100 μL of RPMI medium (Sigma) comprising 10% FBS and human A549 cells was seeded in a 96-well plate to […] cells per well, and incubated overnight. The medium was then removed and washed with phosphate-buffered saline, and added to a DMSO solution of the test compound or RPMI medium comprising 3% FBS with DMSO to a final concentration of 0.1% DMSO. After incubation for 60 minutes, IL-1P (5 ng/well, BioLegend) was added to the solution. After incubation at 37° C. for 24 h, PGE2 in the medium was quantified using the HTRF kit (Cisbio International) and PGF2a was also quantified using the EIA kit (Cayman chemical). Solutions without the test compound were used as positive controls, and solutions without the test compound and IL-1β were used as negative controls. 100% activity was defined as production of PGE2 and PGF2a in the positive control minus those in the negative control. IC50 values were then determined using standard methods.

human mPGES-1 = human mPGES-1 (Homo sapiens (Human), UniProt O14684); assay: mPGES-1 inhibitory activity test; type: biochemical; conditions: microsomes of CHO-K1 cells expressing human mPGES-1, PGH2 1 μM, PGE2 by HTRF; read-out: mPGES-1 inhibition (IC50 nM)
Sequence of human mPGES-1 (O14684 whole entry): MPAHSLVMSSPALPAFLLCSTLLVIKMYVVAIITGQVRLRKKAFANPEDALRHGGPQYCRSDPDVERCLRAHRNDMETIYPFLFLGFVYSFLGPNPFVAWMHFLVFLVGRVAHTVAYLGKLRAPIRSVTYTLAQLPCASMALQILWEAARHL
Method: mPGES-1 microsomal specimens were prepared by transiently transfecting CHO-K1 cells (DS Pharma Biomedical Co. Ltd) with a plasmid encoding human mPGES-1 cDNA using FuGENE 6 Transfection Reagent (Promega). The prepared mPGES-1 microsome specimens were diluted in potassium phosphate buffer of pH 7.4 comprising 2.5 mM reduced glutathione (Sigma-Aldrich), DMSO solution of a test compound or DMSO was added to a final concentration of 1% of DMSO, and then incubated at 4° C. for 20 minutes. The enzymatic reaction was then initiated by adding a solution of PGH2 (Cayman chemical) substrate of a final concentration 1 μM and incubated at 4° C. for 60 seconds. The reaction was terminated by adding a solution of ferric chloride (STREM CHEMICALS) and citric acid (Wako Pure Chemical Industries) salt to a final concentration of 5 mg/mL and 250 mM, respectively. The formed PGE2 was quantified using the HTRF kit (Cisbio International). Solutions without the test compound were used as positive controls, and solutions without the test compound and microsomal specimens were used as negative controls. 100% activity was defined as production of PGE2 in the positive control minus that in the negative control. The percentage inhibition of production of PGE2 at final concentrations of 10 nM and 100 nM of the test compound was then calculated, or IC50 values were determined using standard methods.

SMILES	IC50 (human A549 cells) [nM]	IC50 (human mPGES-1) [nM]
Cc1ncccc1-n1ncc2c(NC(=O)c3cc(CNC(=O)C(C)(C)C)ccc3Cl)cccc21 [Example 56, 2-Chloro-5-{[(2,2-dimethylpropanoyl)amino]methyl}-N-[1-(2-methylpyridin-3-yl)-1H-indazol-4-yl]benzamide hydrochloride]	183	23.6
CC(C)(C)C(=O)NCc1ccc(Cl)c(C(=O)Nc2cccc3c2cnn3-c2cncc(C(F)(F)F)c2)c1 [Example 57, 2-Chloro-5-{[(2,2-dimethylpropanoyl)amino]methyl}-N-{1-[5-(trifluoromethyl)pyridin-3-yl]-1H-indazol-4-yl}benzamide]	5.7	19.8
COc1cncc(-n2ncc3c(NC(=O)c4cc(CNC(=O)C(C)(C)C)ccc4Cl)cccc32)c1 [Example 61, 2-Chloro-5-{[(2,2-dimethylpropanoyl)amino]methyl}-N-[1-(5-methoxypyridin-3-yl)-1H-indazol-4-yl]benzamide hydrochloride]	2.9	3.5
COc1ccc(-n2ncc3c(NC(=O)c4cc(CNC(=O)C(C)(C)C)ccc4Cl)cccc32)cc1C(F)(F)F [Example 62, 2-Chloro-5-{[(2,2-dimethylpropanoyl)amino]methyl}-N-{1-[4-methoxy-3-(trifluoromethyl)phenyl]-1H-indazol-4-yl}benzamide]	3.6	2.4
CC(C)(C)C(=O)NCc1ccc(Cl)c(C(=O)Nc2cccc3c2cnn3-c2cncc(C3CC3)c2)c1 [Example 64, 2-Chloro-N-[1-(5-cyclopropylpyridin-3-yl)-1H-indazol-4-yl]-5-{[(2,2-dimethylpropanoyl)amino]methyl}benzamide hydrochloride]	1.9	1.4

Second part, the compound after the results:

IC50 (human A549 cells) [nM]	IC50 (human mPGES-1) [nM]	SMILES
20.9	3.6	Cc1ncc(-n2ncc3c(NC(=O)c4cc(CNC(=O)C(C)(C)C)ccc4Cl)cccc32)cn1 [Example 52, 2-Chloro-5-{[(2,2-dimethylpropanoyl)amino]methyl}-N-[1-(2-methylpyrimidin-5-yl)-1H-indazol-4-yl]benzamide]
1.8	2.6	Cc1ccc(-n2ncc3c(NC(=O)c4cc(CNC(=O)C(C)(C)C)ccc4Cl)cccc32)cc1Cl [Example 53, 2-Chloro-N-[1-(3-chloro-4-methylphenyl)-1H-indazol-4-yl]-5-([(2,2-dimethylpropanoyl)amino]methyl)benzamide]
6.2	9.5	Cc1ccc(-n2ncc3c(NC(=O)c4cc(CNC(=O)C(C)(C)C)ccc4Cl)cccc32)cn1 [Example 54, 2-Chloro-5-{[(2,2-dimethylpropanoyl)amino]methyl}-N-[1-(6-methylpyridin-3-yl)-1H-indazol-4-yl]benzamide hydrochloride]
1.8	1.3	CC(C)(C)C(=O)NCc1ccc(Cl)c(C(=O)Nc2cccc3c2cnn3-c2ccc(C#N)cc2)c1 [Example 55, 2-Chloro-N-[1-(4-cyanophenyl)-1H-indazol-4-yl]-5-([(2,2-dimethylpropanoyl)amino]methyl)benzamide]
5.9	5.9	Cc1cc(-n2ncc3c(NC(=O)c4cc(CNC(=O)C(C)(C)C)ccc4Cl)cccc32)ccn1 [Example 58, 2-Chloro-5-{[(2,2-dimethylpropanoyl)amino]methyl}-N-[1-(2-methylpyridin-4-yl)-1H-indazol-4-yl]benzamide hydrochloride]
10.4	6.7	Cc1cncc(-n2ncc3c(NC(=O)c4cc(CNC(=O)C(C)(C)C)ccc4Cl)cccc32)c1 [Example 60, 2-Chloro-5-{[(2,2-dimethylpropanoyl)amino]methyl}-N-[1-(5-methylpyridin-3-yl)-1H-indazol-4-yl]benzamide hydrochloride]
13.7	1	COc1ccc(-n2ncc3c(NC(=O)c4cc(CNC(=O)C(C)(C)C)ccc4Cl)cccc32)cn1 [Example 63, 2-Chloro-5-{[(2,2-dimethylpropanoyl)amino]methyl}-N-[1-(6-methoxypyridin-3-yl)-1H-indazol-4-yl]benzamide]
